Measured values reported in patent US20250195490A1, “ALPHA-METHYLENE AND AMINOMETHYL LACTONES AND LACTAMS FOR TREATMENT OF CLOSTRIDIOIDES DIFFICILE INFECTION (CDI)” (Purdue Research Foundation, priority 2022, published 2025).
Values after ≈ are worked out from the molar mass of the structure shown. Like-named read-outs stand apart in the source and are kept apart here.

Experiments:
L. reuteri = assay: MIC against human normal gut microbiota: L. reuteri; type: cell-based, Lactobacillus reuteri
From the text: (§1) The activity of the selected lactones against the human gut microbiota was also examined. Microbiota interfere with C. difficile's ability to colonize the gastrointestinal tract and subsequently cause infection. Many antibiotics inhibit/kill the endogenous microflora, which permits enhanced colonization by C. difficile and infection. Three different bacterial species that are present in the gut microflora were used in this experiment; Bifidobacterium (anaerobic Gram-positive bacteria), Bacteroides (anaerobic Gram-negative bacteria) and Lactobacillus (microaerophilic Gram-positive bacteria). Ideal compounds/drugs are those with selective antibacterial activity against C. difficile so as to protect the indigenous microflora present in the GI tract from being damaged/killed (which will exacerbate infections caused by C. difficile).
(§2) Bifidobacterium and Bacteroides were first grown for 48 hours at 37° C., anaerobically, using brain heart infusion supplemented (BHIS) agar (brain heart infusion agar supplemented with hemin, vitamin K and L-cysteine). Lactobacillus was cultivated on MRS agar and incubated in the presence of 5% CO2 for 48 hours at 37° C. Each bacterium was suspended in phosphate-buffered saline (PBS) to achieve 0.5 McFarland standard and subsequently diluted in brain heart infusion supplemented broth (for Bifidobacterium and Bacteroides) or in MRS broth (for Lactobacillus) to achieve a bacterial inoculum of approximately 5×10^5 CFU/mL. Bacteria were then seeded in 96-well plates containing serial dilutions of the compounds and incubated for 48 hours. MICs reported in Table 4 are the minimum concentration of compound/control drug that inhibited the visual growth of bacteria.

Bi. longum = assay: MIC against human normal gut microbiota: Bifidobacterium longum; type: cell-based
From the text: as §1, §2

L. casei = assay: MIC against human normal gut microbiota: L. casei; type: cell-based, Lactobacillus casei
From the text: as §1, §2

L. gasseri = assay: MIC against human normal gut microbiota: L. gasseri; type: cell-based, Lactobacillus gasseri
From the text: as §1, §2

Ba. dorsei = assay: MIC against human normal gut microbiota: Bacteroides dorsei; type: cell-based
From the text: as §1, §2

[1] = tested on: clinically important Clostridioides difficile strains; assay: MIC against clinically important Clostridioides difficile strains; type: cell-based
Protocol: (§3) The antibacterial activity of compounds 48, 50, 51, 61 and 85 against a panel of Clostridioides difficile strains was evaluated. A bacterial solution equivalent to 0.5 McFarland standard was prepared and diluted in brain heart infusion broth supplemented with hemin and vitamin K. Compounds and control drugs were added in the first row of 96-well plates and serially diluted with media containing bacteria (to achieve a concentration gradient ranging from 128 to 1 μg/mL). Plates were then incubated anaerobically at […] for 48 hours.

[2] = tested on: hypervirulent Clostridioides difficile strains; assay: MIC against hypervirulent Clostridioides difficile strains; type: cell-based
Protocol: as §3

L. crispatus = assay: MIC against human normal gut microbiota: L. crispatus; type: cell-based, Lactobacillus crispatus
From the text: as §1, §2

MRSA (USA300) = assay: microbe, parasite or virus in culture; type: cell-based, Staphylococcus aureus
Protocol: (§4) Method: The minimum inhibitory concentration (MIC) of the compounds and control drugs, linezolid (antibiotic), vancomycin (antibiotic), 5-fluorocytosine (5-FC, antifungal drug), and fluconazole (antifungal drug) was determined using the broth microdilution method according to the guidelines outlined by the Clinical and Laboratory Standards Institute (CLSI) against clinically relevant bacterial (methicillin-resistant Staphylococcus aureus (MRSA), vancomycin-resistant Enterococcus faecalis (VRE), vancomycin-resistant Enterococcus faecium (VRE), Clostridioides difficile and Escherichia coli) and fungal (Candida albicans) strains. A solution equivalent to 0.5 McFarland standard was prepared from each strain and diluted in cation-adjusted Mueller-Hinton broth (for S. aureus and E. coli), tryptone soy broth (for E. faecalis), or brain heart infusion broth (for E. faecium) to achieve a bacterial inoculum of about 5×10^5 CFU/mL. C. difficile strains were cultured in brain heart infusion broth supplemented with hemin and vitamin K. C. albicans was diluted in RPMI medium supplemented with 3-(N-morpholino) propanesulfonic acid to achieve a fungal concentration of about 1.5×10^3 CFU/mL. Compounds and control drugs were added in the first row of the 96-well plates and diluted with media containing bacteria (to achieve a concentration gradient ranging from 128 to 1 μg/mL). For MRSA, VRE, and E. coli strains, plates were then incubated aerobically at 37° C. for at least 18 hours. C. albicans was incubated aerobically at 37° C. for 24 hours. Plates containing C. difficile were incubated anaerobically at […] for 48 hours.

Bi. breve = assay: MIC against human normal gut microbiota: Bifidobacterium breve; type: cell-based
From the text: as §1, §2

Ba. fragilis = assay: MIC against human normal gut microbiota: Bacteroides fragilis; type: cell-based
From the text: as §1, §2

Clostridioides difficile = assay: MIC by broth microdilution against Clostridioides difficile (Table 1); type: cell-based
Protocol: as §4

## C=C1C(=O)O[C@H](c2ccccc2O)[C@@H]1c1cccc(C#N)c1 (racemic) [Compound 50]
L. reuteri; L. reuteri HM 120
  MIC: >128 µg/mL
Bi. longum; Bi. longum HM 848
  MIC: >128 µg/mL
L. casei; L. casei HM 334
  MIC: >128 µg/mL
L. gasseri; L. gasseri HM 407
  MIC: >128 µg/mL
Ba. dorsei; Ba. dorsei HM 29
  MIC: >128 µg/mL
Ba. dorsei; Ba. dorsei HM 717
  MIC: >128 µg/mL
[1]; CD strain 16
  MIC: 128 µg/mL (≈ 439 µM)
[1]; CD strain 18
  MIC: 32 µg/mL (≈ 110 µM)
[1]; CD strain 19
  MIC: 128 µg/mL (≈ 439 µM)
[1]; CD strain 1801
  MIC: 128 µg/mL (≈ 439 µM)
[1]; CD strain 43255
  MIC: 16 µg/mL (≈ 54.9 µM)
[1]; CD strain P6
  MIC: 128 µg/mL (≈ 439 µM)
[1]; CD strain P7
  MIC: 128 µg/mL (≈ 439 µM)
[1]; CD strain P13
  MIC: 32 µg/mL (≈ 110 µM)
[1]; CD strain P19
  MIC: 32 µg/mL (≈ 110 µM)
[2]; CD strain 81
  MIC: >128 µg/mL
[2]; CD strain 82
  MIC: 64 µg/mL (≈ 220 µM)
[2]; CD strain 83
  MIC: 128 µg/mL (≈ 439 µM)
[2]; CD strain 84
  MIC: >128 µg/mL
[2]; CD strain 85
  MIC: >128 µg/mL
[2]; CD strain 86
  MIC: 128 µg/mL (≈ 439 µM)
[2]; CD strain 87
  MIC: 128 µg/mL (≈ 439 µM)
[2]; CD strain 90
  MIC: 128 µg/mL (≈ 439 µM)
[2]; CD strain 49279
  MIC: >128 µg/mL
[2]; CD strain 49287
  MIC: 128 µg/mL (≈ 439 µM)
[2]; CD strain 49291
  MIC: 64 µg/mL (≈ 220 µM)
L. crispatus; L. crispatus HM 375
  MIC: >128 µg/mL
L. crispatus; L. crispatus HM 421
  MIC: >128 µg/mL
MRSA (USA300); aerobic, 37° C., at least 18 hours
  MIC MRSA (USA300): >128 µg/mL
Bi. breve; Bi. breve HM 856
  MIC: >128 µg/mL
Ba. fragilis; Ba. fragilis HM 709
  MIC: >128 µg/mL
Ba. fragilis; Ba. fragilis HM 710
  MIC: >128 µg/mL
Ba. fragilis; Ba. fragilis HM 711
  MIC: >128 µg/mL
Ba. fragilis; Ba. fragilis HM 714
  MIC: >128 µg/mL
Clostridioides difficile; anaerobic, 48 hours, strain BAA-1870
  MIC Clostridioides difficile: 8 µg/mL (≈ 27.5 µM)

## CN[C@H](CC(C)C)C(=O)N[C@H]1C(=O)N[C@@H](CC(N)=O)C(=O)N[C@H]2C(=O)N[C@H]3C(=O)N[C@H](C(=O)N[C@H](C(=O)O)c4cc(O)cc(O)c4-c4cc3ccc4O)[C@H](O)c3ccc(c(Cl)c3)Oc3cc2cc(c3O[C@@H]2O[C@H](CO)[C@@H](O)[C@H](O)[C@H]2O[C@H]2C[C@](C)(N)[C@H](O)[C@H](C)O2)Oc2ccc(cc2Cl)[C@H]1O [Vancomycin, reference compound]
L. reuteri; Limosilactobacillus reuteri
  MIC: > 128 µg/mL
Bi. longum; Bifidobacterium longum
  MIC: 64 µg/mL (≈ 44.2 µM)
L. casei; Lacticaseibacillus casei
  MIC: > 128 µg/mL
L. gasseri; Lactobacillus gasseri
  MIC: > 128 µg/mL
Ba. dorsei; Bacteroides, Ba. dorsei HM 717
  MIC: 8 µg/mL (≈ 5.52 µM)
Ba. dorsei; Bacteroides, Ba. dorsei HM 29
  MIC: 128 µg/mL (≈ 88.3 µM)
[1]; Clostridioides difficile, CD strain 16, read-out: MIC
  MIC: 1 µg/mL (≈ 0.69 µM)
[1]; Clostridioides difficile, CD strain 18, read-out: MIC
  MIC: 0.5 µg/mL (≈ 0.345 µM)
[1]; Clostridioides difficile, CD strain 19, read-out: MIC
  MIC: 1 µg/mL (≈ 0.69 µM)
[1]; Clostridioides difficile, CD strain 1801, read-out: MIC
  MIC: 1 µg/mL (≈ 0.69 µM)
[1]; Clostridioides difficile, CD strain 43255, read-out: MIC
  MIC: 1 µg/mL (≈ 0.69 µM)
[1]; Clostridioides difficile, CD strain P6, read-out: MIC
  MIC: 1 µg/mL (≈ 0.69 µM)
[1]; Clostridioides difficile, CD strain P7, read-out: MIC
  MIC: 1 µg/mL (≈ 0.69 µM)
[1]; Clostridioides difficile, CD strain P13, read-out: MIC
  MIC: 1 µg/mL (≈ 0.69 µM)
[1]; Clostridioides difficile, CD strain P19, read-out: MIC
  MIC: 1 µg/mL (≈ 0.69 µM)
[2]; Clostridioides difficile, CD strain 81
  MIC: 0.25 µg/mL (≈ 0.173 µM)
[2]; Clostridioides difficile, CD strain 82
  MIC: 0.5 µg/mL (≈ 0.345 µM)
[2]; Clostridioides difficile, CD strain 83
  MIC: 0.5 µg/mL (≈ 0.345 µM)
[2]; Clostridioides difficile, CD strain 84
  MIC: 0.25 µg/mL (≈ 0.173 µM)
[2]; Clostridioides difficile, CD strain 85
  MIC: 2 µg/mL (≈ 1.38 µM)
[2]; Clostridioides difficile, CD strain 86
  MIC: 0.5 µg/mL (≈ 0.345 µM)
[2]; Clostridioides difficile, CD strain 87
  MIC: 0.5 µg/mL (≈ 0.345 µM)
[2]; Clostridioides difficile, CD strain 90
  MIC: 1 µg/mL (≈ 0.69 µM)
[2]; Clostridioides difficile, CD strain 49279
  MIC: 1 µg/mL (≈ 0.69 µM)
[2]; Clostridioides difficile, CD strain 49287
  MIC: 0.25 µg/mL (≈ 0.173 µM)
[2]; Clostridioides difficile, CD strain 49291
  MIC: 0.25 µg/mL (≈ 0.173 µM)
L. crispatus; L. crispatus HM 375
  MIC: ≤1 µg/mL
L. crispatus; Lactobacillus crispatus
  MIC: ≤ 1 µg/mL
MRSA (USA300); Staphylococcus aureus, 18 h, read-out: MIC MRSA (USA300)
  MIC: 1 µg/mL (≈ 0.69 µM)
Bi. breve; Bifidobacterium breve
  MIC: ≤ 1 µg/mL
Ba. fragilis; Bacteroides fragilis, Ba. fragilis HM 710
  MIC: 16 µg/mL (≈ 11 µM)
Ba. fragilis; Bacteroides fragilis, Ba. fragilis HM 711
  MIC: 16 µg/mL (≈ 11 µM)
Ba. fragilis; Bacteroides fragilis, Ba. fragilis HM 714
  MIC: 16 µg/mL (≈ 11 µM)
Ba. fragilis; Bacteroides fragilis, Ba. fragilis HM 709
  MIC: 64 µg/mL (≈ 44.2 µM)
Clostridioides difficile; Clostridioides difficile, BAA1870, 48 h, read-out: MIC Clostridioides difficile
  MIC: 1 µg/mL (≈ 0.69 µM)
